Measured values reported in ChEMBL document CHEMBL1149679 (Bioorg Med Chem Lett, 2007).

Columns and labels:
[1] = molecular target: T1, Polyunsaturated fatty acid lipoxygenase ALOX15 (Oryctolagus cuniculus, UniProt P12530); assay: Inhibition of rabbit 15-lipoxygenase in presence of arachidonic acid
T1 sequence (P12530 whole entry): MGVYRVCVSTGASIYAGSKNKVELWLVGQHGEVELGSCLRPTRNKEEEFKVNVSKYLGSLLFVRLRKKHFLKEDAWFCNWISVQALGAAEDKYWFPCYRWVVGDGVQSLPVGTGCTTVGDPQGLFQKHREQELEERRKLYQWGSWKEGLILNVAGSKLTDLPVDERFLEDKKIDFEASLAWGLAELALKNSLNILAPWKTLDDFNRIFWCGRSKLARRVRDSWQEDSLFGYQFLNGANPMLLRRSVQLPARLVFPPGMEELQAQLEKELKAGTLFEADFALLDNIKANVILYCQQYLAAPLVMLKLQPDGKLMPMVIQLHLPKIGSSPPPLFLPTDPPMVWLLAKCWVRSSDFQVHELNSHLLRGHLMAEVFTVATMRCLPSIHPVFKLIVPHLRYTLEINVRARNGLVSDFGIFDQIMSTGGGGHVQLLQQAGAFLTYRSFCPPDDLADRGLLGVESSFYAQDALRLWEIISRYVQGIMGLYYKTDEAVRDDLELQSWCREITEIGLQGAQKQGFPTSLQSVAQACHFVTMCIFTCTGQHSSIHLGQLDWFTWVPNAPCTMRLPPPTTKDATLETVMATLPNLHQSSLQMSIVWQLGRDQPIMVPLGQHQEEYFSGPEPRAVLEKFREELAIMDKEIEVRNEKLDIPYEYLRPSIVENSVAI

[2] = molecular target: T1, Polyunsaturated fatty acid lipoxygenase ALOX15; assay: Inhibition of rabbit 15-lipoxygenase in presence of linoleic acid
[3] = Cmax in Sprague-Dawley rat at 7 mg/kg, po; type: ADME, organism-based; set-up: dose 7 mg/kg, route oral; settings: in vivo
[4] = AUC in Sprague-Dawley rat at 7 mg/kg, po; type: ADME, organism-based; set-up: dose 7 mg/kg, route oral; settings: plasma

- IC50 [1]: 0.05 µM
- IC50 [2]: 0.014 µM
- Cmax [3]: 1.7 µM
- AUC [4]: 4.4 µM·h
Compound: CCCCN1CCN(S(=O)(=O)NCCc2nc(-c3cccs3)[nH]c2-c2ccc(OC)cc2)CC1
